Laboratory results reported in patent US8653261B2, “Modified actinomycin-based nucleic acid stains and methods of their use” (priority 2008, dated 2014).

Legend:
[1] = test system: dead cells; conditions: dead cell identification; cited from earlier work
[2] = test system: fixed cells; conditions: cited from earlier work
[3] = test system: HeLa cells; assay: High content imaging of stained HeLa cells with valinomycin treatment; type: cell-based; conditions: for killing of HeLa cells: 24 hours
Protocol: HeLa cells were either untreated or treated with two concentrations (15 μM and 120 μM) of valinomycin (VLM) as a killing agent for 24 hours before labeling with Compound 7 and with the nuclear counterstain Hoechst 33342 dye (Invitrogen Corporation, Carlsbad, Calif.). At 24 hours of treatment, normal cell growth medium containing 2× final concentration of Hoechst 33342 and Compound 7 was added to the existing medium to result in 1× final concentration. Cells were incubated for 30 minutes at 37° C. and then the drug/dye mixture was replaced with PBS for imaging using a high content automated imaging system (ArrayScan VTI from Thermo/Fisher) using a Texas Red filter set.

[4] = test system: Jurkat T cells; assay: Imaging flow cytometry of stained Jurkat cells with camptothecin treatment; type: cell-based; conditions: 1 μM camptothecin, 4 hours
Protocol: Jurkat T cells were incubated in the presence or absence of 1 μM camptothecin (CPT) for 4 hours to induce apoptosis, then stained with 2.5 μM Compound 7 for 15 minutes at room temperature and analyzed on an AMNIS ImageStream multispectral imaging flow cytometer. Gating on 10,000 collected events with intermediate brightfield (BF) area and high BF aspect ratio (width:height) was performed to distinguish single cells from debris and multi-cellular clumps. Cells with nuclear dye uptake were gated (R3) on the Intensity 180 plot. Cells untreated with camptothecin are shown in the top middle histogram of FIG. 3, with 8.0% stain positive (dead cells) as identified in the R3 gate. The positively stained cells show typical brightfield morphology of dead cells, while the cells negative (live cells) show typical brightfield morphology of live cells.
Cells treated with the apoptotic inducing agent camptothecin (FIG. 3B) (bottom middle histogram), with 68.4% stain positive as identified in the R3 gate. The positively stained cells show typical brightfield morphology of dead cells and stained nuclei typical of apoptosis and cell death that is condensed and fragmented, while the cells negative for staining (live cells) show typical brightfield morphology of live cells. […] Cells negative for stain show morphology typical of healthy cells.

Cc1c2oc3c(C)c(N)cc(C(=O)N[C@@H]4C(=O)N[C@H](C(C)C)C(=O)N5CCC[C@H]5C(=O)N(C)CC(=O)N(C)[C@@H](C(C)C)C(=O)O[C@@H]4C)c3nc-2c(C(=O)N[C@@H]2C(=O)N[C@H](C(C)C)C(=O)N3CCC[C@H]3C(=O)N(C)CC(=O)N(C)[C@@H](C(C)C)C(=O)O[C@@H]2C)c(N)c1=O [Compound 7-AAD, 7-aminoactinomycin D]
time of staining process to fully equilibrate [1]: about 30 minutes | variability of DNA content cell cycle histogram (% CV of the G0G1 peak) [2]: high degree of variability

CCOc1ccc(-c2nc3ccc(-c4nc5ccc(N6CCN(C)CC6)cc5[nH]4)cc3[nH]2)cc1 [Hoechst 33342]
nuclear counterstain labeling of HeLa cells ([3]; untreated or valinomycin-treated cells): labeling both live and dead cells

CC[C@@]1(O)C(=O)OCc2c1cc1n(c2=O)Cc2cc3ccccc3nc2-1 [camptothecin]
cell death measurable by staining with Compound 7 [4]: induced significant cell death

CC(C)[C@@H]1NC(=O)[C@H](C)OC(=O)[C@@H](C(C)C)NC(=O)[C@@H](C(C)C)OC(=O)[C@H](C(C)C)NC(=O)[C@H](C)OC(=O)[C@@H](C(C)C)NC(=O)[C@@H](C(C)C)OC(=O)[C@H](C(C)C)NC(=O)[C@H](C)OC(=O)[C@@H](C(C)C)NC(=O)[C@@H](C(C)C)OC1=O [valinomycin]
killing of HeLa cells ([3]; 15 μM valinomycin): less effective in killing HeLa cells | killing of HeLa cells ([3]; 120 μM valinomycin): effective in killing HeLa cell
